Test results from PubChem BioAssay AID248 (DTP/NCI, 2004).
Where “and” joins values, the source holds several entries; their conditions need not be identical. Identical values can stand only once. Toxic doses and inconclusive results are not listed.

Tested on: L1210 leukemia ip in BDF1 mice, survival T/C
Assay: NCI In Vivo Anticancer Drug Screen. Data for tumor model L1210 Leukemia (intraperitoneal) in B6D2F1 (BDF1) mice
Settings: endpoint: mean survival time, higher = longer survival
Method in brief: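 In this screen, tumor-bearing mice given compound are compared to those given vehicle, and their survival values are reported as a treated-to-control quotient.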

[1] = dose: 100.0 mg/kg/injection, schedule: Q04DX003 (ip), vehicle: Klucel (hydroxypropylcellulose) (HPC)
[2] = dose: 200.0 mg/kg/injection, schedule: Q04DX003 (ip), vehicle: Klucel (hydroxypropylcellulose) (HPC)
[3] = dose: 400.0 mg/kg/injection, schedule: Q04DX003 (ip), vehicle: Klucel (hydroxypropylcellulose) (HPC)
[4] = dose: 6.25 mg/kg/injection, schedule: Q04DX003 (ip), vehicle: saline
[5] = dose: 12.5 mg/kg/injection, schedule: Q04DX003 (ip), vehicle: saline
[6] = dose: 25.0 mg/kg/injection, schedule: Q04DX003 (ip), vehicle: saline
[7] = dose: 6.25 mg/kg/injection, schedule: Q01DX009 (ip), vehicle: saline
[8] = dose: 12.5 mg/kg/injection, schedule: Q01DX009 (ip), vehicle: saline

Q: For `CNC(=S)N/N=C/C(C)=N/NC(=S)NC`, which T/C (dose: 4.0 mg/kg/injection, schedule: Q01DX Z (ip), vehicle: carboxymethylcellulose (CMC)) is on record?
A: 102 % of control

Q: And the T/C (dose: 8.0 mg/kg/injection, schedule: Q01DX Z (ip), vehicle: carboxymethylcellulose (CMC))?
A: 97 % of control

Q: And the T/C (dose: 10.0 mg/kg/injection, schedule: Q04DX003 (ip), vehicle: saline)?
A: 98 % of control

Q: And the T/C (dose: 16.0 mg/kg/injection, schedule: Q01DX Z (ip), vehicle: carboxymethylcellulose (CMC))?
A: 95 % of control and 103 % of control

Q: What about the T/C (dose: 20.0 mg/kg/injection, schedule: Q04DX003 (ip), vehicle: saline) of the same compound?
A: 100 % of control

Q: What about the T/C (dose: 31.0 mg/kg/injection, schedule: Q01DX Z (ip), vehicle: carboxymethylcellulose (CMC)) of the same compound?
A: 95 % of control

Q: And the T/C (dose: 40.0 mg/kg/injection, schedule: Q04DX003 (ip), vehicle: saline)?
A: 96 % of control

Q: What about the T/C (dose: 50.0 mg/kg/injection, schedule: Q01DX001 (ip), vehicle: saline) of the same compound?
A: 86 % of control

Q: What about the T/C (dose: 62.0 mg/kg/injection, schedule: Q01DX Z (ip), vehicle: carboxymethylcellulose (CMC)) of the same compound?
A: 93 % of control and 100 % of control

Q: What about the T/C (dose: 80.0 mg/kg/injection, schedule: Q04DX003 (ip), vehicle: saline) of the same compound?
A: 93 % of control

Q: What about the T/C (dose: 100.0 mg/kg/injection, schedule: Q01DX001 (ip), vehicle: saline) of the same compound?
A: 95 % of control

Q: What about the T/C (dose: 125.0 mg/kg/injection, schedule: Q01DX Z (ip), vehicle: carboxymethylcellulose (CMC)) of the same compound?
A: 90 % of control and 91 % of control

Q: And the T/C (dose: 200.0 mg/kg/injection, schedule: Q01DX001 (ip), vehicle: saline)?
A: 89 % of control

Q: And the T/C (dose: 250.0 mg/kg/injection, schedule: Q01DX Z (ip), vehicle: carboxymethylcellulose (CMC))?
A: 93 % of control

Q: What about the T/C (dose: 400.0 mg/kg/injection, schedule: Q01DX001 (ip), vehicle: saline) of the same compound?
A: 95 % of control

Q: And the T/C (dose: 500.0 mg/kg/injection, schedule: Q01DX Z (ip), vehicle: carboxymethylcellulose (CMC))?
A: 90 % of control

Q: And the T/C (dose: 1000.0 mg/kg/injection, schedule: Q01DX Z (ip), vehicle: carboxymethylcellulose (CMC))?
A: 90 % of control

Q: And the T/C (dose: 125.0 micrograms/kg/injection, schedule: Q01DX009 (ip), vehicle: saline)?
A: 101 % of control

Q: And the T/C (dose: 250.0 micrograms/kg/injection, schedule: Q01DX009 (ip), vehicle: saline)?
A: 98 % of control

Q: And the T/C (dose: 500.0 micrograms/kg/injection, schedule: Q01DX009 (ip), vehicle: saline)?
A: 98 % of control

Q: What about the T/C (dose: 1000.0 micrograms/kg/injection, schedule: Q01DX009 (ip), vehicle: saline) of the same compound?
A: 107 % of control

Q: For `CCN1CC(C)(C)N(C(=O)c2ccccc2)CC1(C)C`, which T/C (dose: 5.0 mg/kg/injection, schedule: Q01DX001 (ip), vehicle: carboxymethylcellulose (CMC)) is on record?
A: 98 % of control

Q: And the T/C (dose: 10.0 mg/kg/injection, schedule: Q01DX001 (ip), vehicle: carboxymethylcellulose (CMC))?
A: 106 % of control

Q: What about the T/C (dose: 20.0 mg/kg/injection, schedule: Q01DX001 (ip), vehicle: carboxymethylcellulose (CMC)) of the same compound?
A: 95 % of control

Q: What about the T/C (dose: 40.0 mg/kg/injection, schedule: Q01DX001 (ip), vehicle: carboxymethylcellulose (CMC)) of the same compound?
A: 109 % of control

Q: And the T/C (dose: 80.0 mg/kg/injection, schedule: Q01DX001 (ip), vehicle: carboxymethylcellulose (CMC))?
A: 98 % of control

Q: With `Nc1ccccc1CSc1nc2nc[nH]c(=O)c2[nH]1` as the compound, how does the T/C [1] read?
A: 95 % of control

Q: What about the T/C [2] of the same compound?
A: 95 % of control

Q: `Oc1ccc2ccccc2c1/C=N/N=C/c1c(O)ccc2ccccc12` was tested. Which T/C [1] did it give?
A: 96 % of control

Q: What about the T/C [2] of the same compound?
A: 91 % of control

Q: And the T/C (dose: 300.0 mg/kg/injection, schedule: Q01DX009 (ip), vehicle: Klucel (hydroxypropylcellulose) (HPC))?
A: 98 % of control

Q: And the T/C [3]?
A: 88 % of control

Q: Which T/C (dose: 15.0 mg/kg/injection, schedule: Q01DX001 (ip), vehicle: carboxymethylcellulose (CMC)) does the source give for `Cc1ccc(S(=O)(=O)NCCN(C2CCCCC2)S(=O)(=O)c2ccc(C)cc2)cc1` here?
A: 96 % of control

Q: And the T/C (dose: 30.0 mg/kg/injection, schedule: Q01DX001 (ip), vehicle: carboxymethylcellulose (CMC))?
A: 96 % of control

Q: How did the T/C [4] turn out when `O=[N+]([O-])c1ccc(S(=O)CCCl)c([N+](=O)[O-])c1` (centres undefined) was run?
A: 96 % of control

Q: And the T/C [5]?
A: 97 % of control

Q: And the T/C (dose: 25.0 mg/kg/injection, schedule: Q04DX003 (ip), vehicle: saline with Tween-80)?
A: 100 % of control

Q: And the T/C [6]?
A: 97 % of control

Q: Which T/C (dose: 3.13 mg/kg/injection, schedule: Q01DX009 (ip), vehicle: saline) does the source give for `c1ccc2c(c1)[nH]c1c2c[n+]2c3c(cccc13)CCC2` here?
A: 105 % of control

Q: And the T/C [7]?
A: 105 % of control

Q: And the T/C [8]?
A: 105 % of control

Q: Which T/C (dose: 50.0 mg/kg/injection, schedule: Q01DX009 (ip), vehicle: saline with Tween-80) does the source give for `C=CC/C=C/C1CCCCC1` here?
A: 92 % of control

Q: What about the T/C (dose: 100.0 mg/kg/injection, schedule: Q01DX009 (ip), vehicle: saline with Tween-80) of the same compound?
A: 100 % of control

Q: And the T/C (dose: 200.0 mg/kg/injection, schedule: Q01DX009 (ip), vehicle: saline with Tween-80)?
A: 89 % of control

Q: For `c1ccc2c(OCC3=NCCN3)cccc2c1`, which T/C (dose: 20.0 mg/kg/injection, schedule: Q01DX001 (ip), vehicle: Klucel (hydroxypropylcellulose) (HPC)) is on record?
A: 104 % of control

Q: And the T/C (dose: 25.0 mg/kg/injection, schedule: Q01DX009 (ip), vehicle: Klucel (hydroxypropylcellulose) (HPC))?
A: 105 % of control

Q: And the T/C (dose: 40.0 mg/kg/injection, schedule: Q01DX001 (ip), vehicle: Klucel (hydroxypropylcellulose) (HPC))?
A: 104 % of control

Q: And the T/C (dose: 50.0 mg/kg/injection, schedule: Q01DX009 (ip), vehicle: Klucel (hydroxypropylcellulose) (HPC))?
A: 106 % of control

Q: What about the T/C (dose: 80.0 mg/kg/injection, schedule: Q01DX001 (ip), vehicle: Klucel (hydroxypropylcellulose) (HPC)) of the same compound?
A: 102 % of control

Q: And the T/C (dose: 100.0 mg/kg/injection, schedule: Q01DX001 (ip), vehicle: Klucel (hydroxypropylcellulose) (HPC))?
A: 109 % of control

Q: `c1ccc(-c2nnnn2C23CC4CC(CC(C4)C2)C3)cc1` was tested. Which T/C (dose: 100.0 mg/kg/injection, schedule: Q04DX003 (ip), vehicle: saline) did it give?
A: 98 % of control

Q: And the T/C (dose: 200.0 mg/kg/injection, schedule: Q04DX003 (ip), vehicle: saline)?
A: 100 % of control

Q: What about the T/C (dose: 400.0 mg/kg/injection, schedule: Q04DX003 (ip), vehicle: saline) of the same compound?
A: 98 % of control

Q: `COc1ccc(-n2c(O)c(N=Nc3ccc(Cl)cc3)c(=O)n(-c3ccccc3)c2=S)cc1` was tested. Which T/C (dose: 37.5 mg/kg/injection, schedule: Q01DX001 (ip), vehicle: Klucel (hydroxypropylcellulose) (HPC)) did it give?
A: 89 % of control

Q: And the T/C (dose: 75.0 mg/kg/injection, schedule: Q01DX001 (ip), vehicle: Klucel (hydroxypropylcellulose) (HPC))?
A: 94 % of control

Q: What about the T/C (dose: 150.0 mg/kg/injection, schedule: Q01DX001 (ip), vehicle: Klucel (hydroxypropylcellulose) (HPC)) of the same compound?
A: 92 % of control

Q: What does the source list for `N#CC1CC=CCC1` (centres undefined)?
A: T/C [7]: 113 % of control; T/C [4]: 101 % of control; T/C [8]: 121 % of control; T/C [5]: 90 % of control; T/C (dose: 25.0 mg/kg/injection, schedule: Q01DX009 (ip), vehicle: saline): 103 % of control; T/C [6]: 113 % of control

Q: Which results are given for `CC(C)Nc1nc(Cl)nc(NC(C)C)n1`?
A: T/C (dose: 150.0 mg/kg/injection, schedule: Q01DX009 (ip), vehicle: Klucel (hydroxypropylcellulose) (HPC)): 101 % of control; T/C [2]: 96 % of control; T/C (dose: 225.0 mg/kg/injection, schedule: Q01DX009 (ip), vehicle: Klucel (hydroxypropylcellulose) (HPC)): 94 % of control; T/C (dose: 335.0 mg/kg/injection, schedule: Q01DX009 (ip), vehicle: Klucel (hydroxypropylcellulose) (HPC)): 94 % of control; T/C [3]: 94 % of control

Q: With `CC[n+]1cccc(NC(=O)c2ccc(NC(=O)c3ccc(C(=O)Nc4ccc(C(=O)Nc5ccc[n+](CC)c5)c(N)c4)cc3)cc2N)c1` as the compound, how does the T/C (dose: 2.5 mg/kg/injection, schedule: Q01DX015 (ip), vehicle: other) read?
A: 187 % of control

Q: And the T/C (dose: 5.0 mg/kg/injection, schedule: Q01DX015 (ip), vehicle: other)?
A: 264 % of control

Q: What about the T/C (dose: 8.0 mg/kg/injection, schedule: Q01DX015 (ip), vehicle: other) of the same compound?
A: 246 % of control

Q: What about the T/C (dose: 10.0 mg/kg/injection, schedule: Q01DX015 (ip), vehicle: other) of the same compound?
A: 150 % of control

Q: What about the T/C (dose: 22.0 mg/kg/injection, schedule: Q01DX001 (ip), vehicle: other) of the same compound?
A: 156 % of control

Q: And the T/C (dose: 22.0 mg/kg/injection, schedule: Q01DX015 (ip), vehicle: other)?
A: 114 % of control

Q: What about the T/C (dose: 25.0 mg/kg/injection, schedule: Q01DX001 (ip), vehicle: other) of the same compound?
A: 174 % of control

Q: And the T/C (dose: 33.0 mg/kg/injection, schedule: Q01DX001 (ip), vehicle: other)?
A: 168 % of control

Q: What about the T/C (dose: 37.0 mg/kg/injection, schedule: Q01DX015 (ip), vehicle: other) of the same compound?
A: 90 % of control

Q: And the T/C (dose: 50.0 mg/kg/injection, schedule: Q01DX001 (ip), vehicle: other)?
A: 203 % of control

Q: And the T/C (dose: 55.0 mg/kg/injection, schedule: Q01DX001 (ip), vehicle: other)?
A: 219 % of control

Q: And the T/C (dose: 75.0 mg/kg/injection, schedule: Q01DX001 (ip), vehicle: other)?
A: 212 % of control

Q: `CC1(C)Cc2ccccc2C(c2nccc3ccccc23)=N1` was tested. Which T/C [1] did it give?
A: 106 % of control

Q: And the T/C [2]?
A: 118 % of control

Q: And the T/C [3]?
A: 102 % of control

Q: Which T/C (dose: 50.0 mg/kg/injection, schedule: Q01DX Z (ip), vehicle: methylcellulose (MC)) does the source give for `Nc1cc(N)nc(C(F)(F)F)n1` here?
A: 102 % of control

Q: And the T/C (dose: 100.0 mg/kg/injection, schedule: Q01DX Z (ip), vehicle: methylcellulose (MC))?
A: 94 % of control
